Data: patent publication USRE29225E, “N-substituted derivatives of 3-carboxamide and 3-thiocarboxamide” (The Dow Chemical Company, priority 1976, dated 1977)
≈ marks a conversion by molar mass, not a printed value. Like-named read-outs stand apart in the source and are kept apart here.

Assays:
Type in all cases: cell-based
A. niger = assay: agar dilution test, A. niger; settings: Aspergillus niger, read-out: Minimum Inhibitory Concentration, An
Description: (§1) In representative operations, the products of the invention when tested for antimicrobial activity using conventional agar dilution tests gave complete growth inhibition against the following organisms at the indicated concentrations in parts per million: […]

S. typhosa = assay: agar dilution test, S. typhosa; settings: read-out: Minimum Inhibitory Concentration, St
Description: as §1

S. aureus = assay: agar dilution test, S. aureus; settings: Staphylococcus aureus, complete growth inhibition, read-out: Minimum Inhibitory Concentration, Sa
Description: as §1

P. chrysogenum = assay: agar dilution test, P. chrysogenum; settings: Penicillium chrysogenum, read-out: Minimum Inhibitory Concentration, Pen
Description: as §1

A. aerogenes = assay: agar dilution test, A. aerogenes; settings: Klebsiella aerogenes, read-out: Minimum Inhibitory Concentration, Aa
Description: as §1

P. aeruginosa = assay: agar dilution test, P. aeruginosa; settings: Pseudomonas aeruginosa, read-out: Minimum Inhibitory Concentration, Pa
Description: as §1

C. pelliculosa = assay: agar dilution test, C. pelliculosa; settings: Hansenula anomala, read-out: Minimum Inhibitory Concentration, Cp
Description: as §1

S. cerevisiae = assay: agar dilution test, S. cerevisiae; settings: Saccharomyces cerevisiae, read-out: Minimum Inhibitory Concentration, Sc
Description: as §1

[1] = A. niger, agar dilution, complete growth inhibition
[2] = P. chrysogenum, agar dilution, complete growth inhibition
[3] = A. aerogenes, agar dilution, complete growth inhibition
[4] = P. aeruginosa, agar dilution, complete growth inhibition
[5] = C. pelliculosa, agar dilution, complete growth inhibition
[6] = S. cerevisiae, agar dilution, complete growth inhibition

Row | Compound | MIC (A. niger) | MIC (S. typhosa; S. typhosa, agar dilution, complete growth inhibition) | MIC (S. aureus) | MIC (P. chrysogenum) | MIC (A. aerogenes) | MIC (P. aeruginosa) | MIC (C. pelliculosa) | MIC (S. cerevisiae) | MIC (A. niger; [1]) | MIC (S. typhosa) | MIC (P. chrysogenum; [2]) | MIC (A. aerogenes; [3]) | MIC (P. aeruginosa; [4]) | MIC (C. pelliculosa; [5]) | MIC (S. cerevisiae; [6])
1 | Cl/C=C\C[N+]12CN3CN(CN(C3)C1)C2.[Cl-] [Cis, cis-1-(3-chloro-2-propenyl)-3,5,7-triaza-1-azoniatricyclo (3,3,1,1^3,7) decane chloride, reference compound] | > 500 µg/mL | 25 µg/mL | 50 µg/mL | 500 µg/mL | 50 µg/mL | 75 µg/mL | 500 µg/mL | 250 µg/mL |  |  |  |  |  |  | 
2 | O=C(Nc1ccccc1)N1CN2CN(C/C=C\Cl)CN(C2)C1 [Example 1, N-Phenyl-3-Carboxamide-7-Cis(3-Chloro-2-Propenyl)-1,3,5,7-Tetraazabicyclo(3,3,1)Nonane] |  |  | 50 µg/mL (≈ 155 µM) |  |  |  |  |  | 500 µg/mL (≈ 1550 µM) | 25 µg/mL (≈ 77.7 µM) | 250 µg/mL (≈ 777 µM) | 50 µg/mL (≈ 155 µM) | 50 µg/mL (≈ 155 µM) | 250 µg/mL (≈ 777 µM) | 250 µg/mL (≈ 777 µM)
3 | S=C(Nc1ccccc1)N1CN2CN(C/C=C\Cl)CN(C2)C1 [Example 2, N-Phenyl-3-.[.Thiocarboxamide.]..Iadd.Methanethioamide.Iaddend.-7-Cis-(3-Chloro-2-Propenyl)-1,3,5,7-Tetraazabicyclo(3,3,1)Nonane] |  |  | 75 µg/mL (≈ 222 µM) |  |  |  |  |  | 250 µg/mL (≈ 740 µM) | 25 µg/mL (≈ 74 µM) | 500 µg/mL (≈ 1480 µM) | 50 µg/mL (≈ 148 µM) | 75 µg/mL (≈ 222 µM) | > 500 µg/mL | 250 µg/mL (≈ 740 µM)
4 | COc1ccc(NC(=O)N2CN3CN(C/C=C\Cl)CN(C3)C2)cc1 [Example 3 a)] |  |  | 50 µg/mL (≈ 142 µM) |  |  |  |  |  | 500 µg/mL (≈ 1420 µM) | 10 µg/mL (≈ 28.4 µM) | 250 µg/mL (≈ 711 µM) | 75 µg/mL (≈ 213 µM) | 75 µg/mL (≈ 213 µM) | 250 µg/mL (≈ 711 µM) | 250 µg/mL (≈ 711 µM)
5 | Cc1ccc(NC(=O)N2CN3CN(C/C=C\Cl)CN(C3)C2)cc1 [Example 3 b)] |  |  | 50 µg/mL (≈ 149 µM) |  |  |  |  |  | 250 µg/mL (≈ 744 µM) | 25 µg/mL (≈ 74.4 µM) | 100 µg/mL (≈ 298 µM) | 50 µg/mL (≈ 149 µM) | 50 µg/mL (≈ 149 µM) | 250 µg/mL (≈ 744 µM) | 250 µg/mL (≈ 744 µM)
6 | Cc1ccc(C)c(NC(=O)N2CN3CN(C/C=C\Cl)CN(C3)C2)c1 [Example 3 c)] |  |  | 75 µg/mL (≈ 214 µM) |  |  |  |  |  | 500 µg/mL (≈ 1430 µM) | 50 µg/mL (≈ 143 µM) | 250 µg/mL (≈ 715 µM) | 75 µg/mL (≈ 214 µM) | 75 µg/mL (≈ 214 µM) | 250 µg/mL (≈ 715 µM) | 250 µg/mL (≈ 715 µM)
7 | O=C(Nc1ccc(Cl)cc1)N1CN2CN(C/C=C\Cl)CN(C2)C1 [Example 3 d)] |  |  | 75 µg/mL (≈ 211 µM) |  |  |  |  |  | 500 µg/mL (≈ 1400 µM) | 25 µg/mL (≈ 70.2 µM) | 250 µg/mL (≈ 702 µM) | 75 µg/mL (≈ 211 µM) | 100 µg/mL (≈ 281 µM) | 250 µg/mL (≈ 702 µM) | 250 µg/mL (≈ 702 µM)
8 | O=C(Nc1ccc(Br)cc1)N1CN2CN(C/C=C\Cl)CN(C2)C1 [Example 3 e)] |  |  | 100 µg/mL (≈ 250 µM) |  |  |  |  |  | 500 µg/mL (≈ 1250 µM) | 25 µg/mL (≈ 62.4 µM) | 250 µg/mL (≈ 624 µM) | 100 µg/mL (≈ 250 µM) | 250 µg/mL (≈ 624 µM) | 250 µg/mL (≈ 624 µM) | 250 µg/mL (≈ 624 µM)
9 | O=C(Nc1cc(Cl)ccc1Cl)N1CN2CN(C/C=C\Cl)CN(C2)C1 [Example 3 f)] |  |  | 75 µg/mL (≈ 192 µM) |  |  |  |  |  | 500 µg/mL (≈ 1280 µM) | 50 µg/mL (≈ 128 µM) | 250 µg/mL (≈ 640 µM) | 75 µg/mL (≈ 192 µM) | 100 µg/mL (≈ 256 µM) | 250 µg/mL (≈ 640 µM) | 250 µg/mL (≈ 640 µM)
10 | O=C(Nc1ccc(Cl)c(Cl)c1)N1CN2CN(C/C=C\Cl)CN(C2)C1 [Example 3 g)] |  |  | 50 µg/mL (≈ 128 µM) |  |  |  |  |  | 500 µg/mL (≈ 1280 µM) | 25 µg/mL (≈ 64 µM) | 250 µg/mL (≈ 640 µM) | 250 µg/mL (≈ 640 µM) | 250 µg/mL (≈ 640 µM) | 250 µg/mL (≈ 640 µM) | 250 µg/mL (≈ 640 µM)
11 | O=C(NC1CCCCC1)N1CN2CN(C/C=C\Cl)CN(C2)C1 [Example 3 h)] |  |  | 75 µg/mL (≈ 229 µM) |  |  |  |  |  | 500 µg/mL (≈ 1530 µM) | 25 µg/mL (≈ 76.3 µM) | 250 µg/mL (≈ 763 µM) | 50 µg/mL (≈ 153 µM) | 50 µg/mL (≈ 153 µM) | 250 µg/mL (≈ 763 µM) | 250 µg/mL (≈ 763 µM)
12 | Cc1ccc(S(=O)(=O)NC(=O)N2CN3CN(C/C=C\Cl)CN(C3)C2)cc1 [Example 3 i)] |  |  | 250 µg/mL (≈ 625 µM) |  |  |  |  |  | > 500 µg/mL | 50 µg/mL (≈ 125 µM) | 500 µg/mL (≈ 1250 µM) | 250 µg/mL (≈ 625 µM) | 500 µg/mL (≈ 1250 µM) | 500 µg/mL (≈ 1250 µM) | 500 µg/mL (≈ 1250 µM)
13 | S=C(Nc1ccc(Cl)cc1)N1CN2CN(C/C=C\Cl)CN(C2)C1 [Example 3 j)] |  |  | 75 µg/mL (≈ 201 µM) |  |  |  |  |  | 250 µg/mL (≈ 671 µM) | 50 µg/mL (≈ 134 µM) | 100 µg/mL (≈ 269 µM) | 75 µg/mL (≈ 201 µM) | 100 µg/mL (≈ 269 µM) | 250 µg/mL (≈ 671 µM) | 250 µg/mL (≈ 671 µM)
14 | S=C(Nc1ccc(Br)cc1)N1CN2CN(C/C=C\Cl)CN(C2)C1 [Example 3 k)] |  |  | 250 µg/mL (≈ 600 µM) |  |  |  |  |  | 500 µg/mL (≈ 1200 µM) | 75 µg/mL (≈ 180 µM) | 250 µg/mL (≈ 600 µM) | 100 µg/mL (≈ 240 µM) | 250 µg/mL (≈ 600 µM) | 250 µg/mL (≈ 600 µM) | 500 µg/mL (≈ 1200 µM)
15 | S=C(Nc1ccc(Cl)c(Cl)c1)N1CN2CN(C/C=C\Cl)CN(C2)C1 [Example 3 l)] |  |  | 50 µg/mL (≈ 123 µM) |  |  |  |  |  | 250 µg/mL (≈ 615 µM) | 75 µg/mL (≈ 184 µM) | 100 µg/mL (≈ 246 µM) | 100 µg/mL (≈ 246 µM) | 100 µg/mL (≈ 246 µM) | 250 µg/mL (≈ 615 µM) | 250 µg/mL (≈ 615 µM)
16 | Cc1ccc(NC(=S)N2CN3CN(C/C=C\Cl)CN(C3)C2)cc1C [Example 3 m)] |  |  | 50 µg/mL (≈ 137 µM) |  |  |  |  |  | 250 µg/mL (≈ 683 µM) | 50 µg/mL (≈ 137 µM) | 100 µg/mL (≈ 273 µM) | 75 µg/mL (≈ 205 µM) | 100 µg/mL (≈ 273 µM) | 250 µg/mL (≈ 683 µM) | 250 µg/mL (≈ 683 µM)
17 | CCCCNC(=O)N1CN2CN(C/C=C\Cl)CN(C2)C1 [Example 3 n)] |  |  | 50 µg/mL (≈ 166 µM) |  |  |  |  |  | 250 µg/mL (≈ 828 µM) | 25 µg/mL (≈ 82.8 µM) | 250 µg/mL (≈ 828 µM) | 50 µg/mL (≈ 166 µM) | 75 µg/mL (≈ 248 µM) | 250 µg/mL (≈ 828 µM) | 250 µg/mL (≈ 828 µM)
18 | CCCCNC(=S)N1CN2CN(C/C=C\Cl)CN(C2)C1 [Example 3 o)] |  |  | 100 µg/mL (≈ 315 µM) |  |  |  |  |  | 500 µg/mL (≈ 1570 µM) | 75 µg/mL (≈ 236 µM) | 500 µg/mL (≈ 1570 µM) | 100 µg/mL (≈ 315 µM) | 250 µg/mL (≈ 786 µM) | > 500 µg/mL | 500 µg/mL (≈ 1570 µM)
